In assay [1] the test system is C3. The assay is described as follows: C3 mRNA (RT-PCR) in HepG2 cells. The conditions noted are these: HepG2, 10 and 100 microgram/ml of S6I, compared with PLAG. The format is cell-based, human. The protocol:
A liver cell line, HepG2 (American Type Culture Collection, ATCC, Rockville, Md.), is incubated and maintained at 37° C., 5% CO2 humid atmosphere in DMEM medium. When HepG2 cells, which are known to produce complement in culture, are treated with PLAG, the activity of complement is reduced effectively, as confirmed by RT-PCR of mRNA. In the RT-PCR, 5×10^5 number of HepG2 cells/ml are distributed into 12 well plates and induced C3 for 12 hours with 10% FCS. Then PLAG is added and further cultured for 2 hours. Cells are harvested and mRNA is isolated and RT-PCR is carried out with specific primer of C3; GAPDH is used as an internal control.

The subject of assay [2] is C3. The assay is described as follows: C3 expression (RT-PCR) in IL-4/TNF-α treated HMC-1 cells. The note with it: HMC-1 cells treated with IL-4 and TNF-α; PLAG 0.1 and 1 μg/mL. The format is cell-based, human. The protocol: A blood cell line, HMC-1 (human mast cell, American Type Culture Collection, ATCC, Rockville, Md.) is incubated and maintained at 37° C. under 5% CO2 humid conditions. The medium is IMDM (Life Technologies, Karlsruhe, Germany) containing 10% Fetal Calf Serum (FCS, HyClone, Logan, Utah), 2 mM […], 100 μg/ml penicillin, 100 μg/ml streptomycin (Life Technologies). The cultured HMC-1 cells (1×10^6 cell/ml) are pre-treated with 0.1 and 1 μg/mL concentration of PLAG, followed by treating with IL-4 (5 ng) and/or TNF-α (10 ng) to induce cellular activities.
The expressed C3 and its mRNA level change are observed by using RT-PCR (Reverse Transcriptase Polymerase Chain Reaction). The RT-PCR is carried out as follows: the total RNA is separated by the standard protocol and cDNA is synthesized using AccuScript High Fidelity 1st Strand cDNA Synthesis Kit (Stratagene) by the manufacturer's instructions. Two-step RT-PCR reaction is conducted using Oligo-dT primer and reverse transcriptase, pair of primer and Taq polymerase (Takara, Shiga, Japan). […] The product of PCR is separated using 1.5% agarose gel, dyed with ethidium bromide (EtBr), and visualized with Gel Doc 2000 UV trans-illuminator (Bio-Rad Laboratories, Hercules, Calif., USA), and the experimental data is analyzed using Quantity One software (Bio-Rad Laboratories).

For assay [3], the system named is white blood cells and neutrophils. The experiment in a line: Cyclophosphamide-induced neutropenia in mice, G-CSF with or without PLAG. The note with it: mice, cyclophosphamide 100 mpk i.p. ten days; G-CSF 0.25 mpk i.p.; PLAG 25 mpk p.o. The format is in vivo. An excerpt: Mice receive cyclophosphamide (100 mpk, i.p.) for a period of ten days, with or without G-CSF (0.25 mpk, i.p.) or G-CSF (0.25 mpk, i.p.) plus PLAG (25 mpk, p.o.): […]

This is an account of results in patent US11357749B2, “Methods for treating neutropenia” (Enzychem Lifesciences Corporation, priority 2014, dated 2022).

Regarding `NC(=O)c1cnc(NCCc2ccc(O)c(Cl)c2)nc1NCc1ccccc1` [S6I, reference compound], the “C3 expression (RT-PCR)” value in assay [1] is recorded as “comparable”. The “expression of C3” value in assay [2] is “suppresses expression of C3”.

B1: G-CSL: Granulocyte-colony stimulating factor, glycoprotein that stimulates hematopoietic precursor cells; 0.25 mpk i.p. in mice (protein, UniProt P09920 31-208, looked up)
Granulocyte …: VPLVTVSALPPSLPLPRSFLLKSLEQVRKIQASGSVLLEQLCATYKLCHPEELVLLGHSLGIPKASLSGCSSQALQQTQCLSQLHSGLCLYQGLLQALSGISPALAPTLDLLQLDVANFATTIWQQMENLGVAPTVQPTQSAMPAFTSAFQRRAGGVLAISYLQGFLETARLALHHLA
With B1, in assay [3], the Neutrophils came to 4.36 k/μl and the “White blood cells (WBCs)” value worked out at 5.37 k/μl.
